Source: ChEMBL document CHEMBL3763125, “Discovery of novel phenoxazinone derivatives as DKK1/LRP6 interaction inhibitors: Synthesis, biological evaluation and structure-activity relationships” (Bioorg Med Chem, 2016)
Active and inactive are the calls of the source. The calls are words filed in the database; no cut-off is given here.

These compounds were tested against T1, Low-density lipoprotein receptor-related protein 6 (Homo sapiens, UniProt O75581) (assay: Binding affinity to LRP6 in human SH-SY5Y cells assessed as DKK1/LRP6 interaction-mediated increase in beta-catenin level at 10 uM incubated for 1 hr using compound pre-treated DKK1 conditioned media by Western blot analysis).
T1 sequence (O75581 whole entry): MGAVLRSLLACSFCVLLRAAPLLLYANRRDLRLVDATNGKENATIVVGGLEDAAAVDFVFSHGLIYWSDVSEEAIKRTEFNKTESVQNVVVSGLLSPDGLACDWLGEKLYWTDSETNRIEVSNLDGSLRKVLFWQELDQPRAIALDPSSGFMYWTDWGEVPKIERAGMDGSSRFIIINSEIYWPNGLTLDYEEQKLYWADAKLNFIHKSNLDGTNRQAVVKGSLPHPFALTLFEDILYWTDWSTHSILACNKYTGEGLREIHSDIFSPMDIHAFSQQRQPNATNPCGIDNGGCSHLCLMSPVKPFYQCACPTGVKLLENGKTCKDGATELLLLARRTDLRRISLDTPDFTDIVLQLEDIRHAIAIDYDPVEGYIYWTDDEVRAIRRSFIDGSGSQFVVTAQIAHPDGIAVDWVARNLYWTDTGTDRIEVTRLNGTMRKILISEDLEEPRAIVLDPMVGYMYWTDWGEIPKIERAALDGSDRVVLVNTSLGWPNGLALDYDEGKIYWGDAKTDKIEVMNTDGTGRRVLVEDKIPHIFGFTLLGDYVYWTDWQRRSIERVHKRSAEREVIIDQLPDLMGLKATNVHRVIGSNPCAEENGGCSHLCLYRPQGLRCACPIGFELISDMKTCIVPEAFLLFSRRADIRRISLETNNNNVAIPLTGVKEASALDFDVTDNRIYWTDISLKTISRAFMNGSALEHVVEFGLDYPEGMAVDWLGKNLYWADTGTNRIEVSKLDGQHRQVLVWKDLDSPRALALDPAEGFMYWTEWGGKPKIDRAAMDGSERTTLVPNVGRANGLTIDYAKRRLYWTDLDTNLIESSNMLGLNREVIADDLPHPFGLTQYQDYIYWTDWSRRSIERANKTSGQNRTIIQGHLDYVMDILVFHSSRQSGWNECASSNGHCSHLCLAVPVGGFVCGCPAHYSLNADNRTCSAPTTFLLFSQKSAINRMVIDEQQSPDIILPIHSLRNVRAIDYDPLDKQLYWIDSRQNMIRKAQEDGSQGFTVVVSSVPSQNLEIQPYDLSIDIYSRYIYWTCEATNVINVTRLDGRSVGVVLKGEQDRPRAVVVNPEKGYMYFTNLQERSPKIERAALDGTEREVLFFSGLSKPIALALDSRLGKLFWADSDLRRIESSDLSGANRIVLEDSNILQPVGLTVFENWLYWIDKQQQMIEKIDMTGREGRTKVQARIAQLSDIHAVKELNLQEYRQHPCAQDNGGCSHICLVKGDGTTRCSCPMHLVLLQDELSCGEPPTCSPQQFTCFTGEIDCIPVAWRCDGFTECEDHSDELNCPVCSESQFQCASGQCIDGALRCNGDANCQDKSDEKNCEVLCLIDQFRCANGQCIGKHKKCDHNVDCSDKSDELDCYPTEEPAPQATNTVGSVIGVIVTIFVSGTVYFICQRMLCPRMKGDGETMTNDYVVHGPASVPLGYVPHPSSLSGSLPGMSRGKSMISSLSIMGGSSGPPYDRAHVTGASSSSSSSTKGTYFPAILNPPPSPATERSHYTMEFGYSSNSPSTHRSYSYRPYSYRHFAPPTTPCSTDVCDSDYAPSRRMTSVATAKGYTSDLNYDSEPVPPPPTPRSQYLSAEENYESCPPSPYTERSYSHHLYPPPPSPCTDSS
Assay type: cell-based

SMILES	inhibition
COC(=O)c1c2nc3ccc(N(C)C)cc3oc-2c(O)c(=O)c1N1CCCCC1	Active
COC(=O)c1c2nc3ccc(N(C)C)cc3oc-2c(O)c(=O)c1NC1CCCC1	Active
COC(=O)c1c2nc3ccc(N(C)C)cc3oc-2c(O)c(=O)c1Nc1ccc(Cl)c(Cl)c1	Active
COC(=O)c1c2nc3ccc(N(C)C)cc3oc-2c(O)c(=O)c1NCc1ccc(OC)cc1	Active
COC(=O)c1c2nc3ccc(N(C)C)cc3oc-2c(O)c(=O)c1NC1CCCCC1	Active
COC(=O)c1c2nc3ccc(N(C)C)cc3oc-2c(O)c(=O)c1Nc1ccccc1	Active
COC(=O)c1c2nc3ccc(N(C)C)cc3oc-2c(O)c(=O)c1Nc1ccc(OC)cc1	Active
COC(=O)c1c2nc3ccc(N(C)C)cc3oc-2c(O)c(=O)c1Nc1ccc(C)cc1	Active
CCCCOC(=O)c1c2nc3ccc(N(C)C)cc3oc-2c(O)c(=O)c1NCc1ccc(OC)cc1	Active
COC(=O)c1c2nc3ccc(N(C)C)cc3oc-2c(O)c(=O)c1N1CCOCC1	Active
COC(=O)c1c2nc3ccc(N(C)C)cc3oc-2c(O)c(=O)c1N	Active

The compounds below were run against T1, Low-density lipoprotein receptor-related protein 6 (assay: Binding affinity to human LRP6 expressed in HEK293 cells assessed as inhibition of DKK1/LRP6 interaction using compound pre-treated DKK1 conditioned media after 2 hrs by fluorescence microscopic analysis).
Assay type: cell-based

SMILES	IC50 [µM]
COC(=O)c1c2nc3ccc(N(C)C)cc3oc-2c(O)c(=O)c1N1CCCCC1	5.5
COC(=O)c1c2nc3ccc(N(C)C)cc3oc-2c(O)c(=O)c1NC1CCCC1	4.61
COC(=O)c1c2nc3ccc(N(C)C)cc3oc-2c(O)c(=O)c1Nc1ccc(Cl)c(Cl)c1	4.87
COC(=O)c1c2nc3ccc(N(C)C)cc3oc-2c(O)c(=O)c1NCc1ccc(OC)cc1	4.33
COC(=O)c1c2nc3ccc(N(C)C)cc3oc-2c(O)c(=O)c1NC1CCCCC1	4.06
COC(=O)c1c2nc3ccc(N(C)C)cc3oc-2c(O)c(=O)c1Nc1ccccc1	6.16
COC(=O)c1c2nc3ccc(N(C)C)cc3oc-2c(O)c(=O)c1Nc1ccc(OC)cc1	4.71
COC(=O)c1c2nc3ccc(N(C)C)cc3oc-2c(O)c(=O)c1Nc1ccc(C)cc1	3.77
CCCCOC(=O)c1c2nc3ccc(N(C)C)cc3oc-2c(O)c(=O)c1NCc1ccc(OC)cc1	3.38
COC(=O)c1c2nc3ccc(N(C)C)cc3oc-2c(O)c(=O)c1N1CCOCC1	3.74
COC(=O)c1c2nc3ccc(N(C)C)cc3oc-2c(O)c(=O)c1N	5.23

These compounds were tested on SH-SY5Y (assay: Cytotoxicity against human SH-SY5Y cells at 10 to 100 uM after 24 hrs by MTT assay).
Assay type: cell-based

SMILES	Activity
COC(=O)c1c2nc3ccc(N(C)C)cc3oc-2c(O)c(=O)c1N1CCCCC1	Non-toxic
COC(=O)c1c2nc3ccc(N(C)C)cc3oc-2c(O)c(=O)c1NC1CCCC1	Non-toxic
COC(=O)c1c2nc3ccc(N(C)C)cc3oc-2c(O)c(=O)c1Nc1ccc(Cl)c(Cl)c1	Non-toxic
COC(=O)c1c2nc3ccc(N(C)C)cc3oc-2c(O)c(=O)c1NCc1ccc(OC)cc1	Non-toxic
COC(=O)c1c2nc3ccc(N(C)C)cc3oc-2c(O)c(=O)c1NC1CCCCC1	Non-toxic
COC(=O)c1c2nc3ccc(N(C)C)cc3oc-2c(O)c(=O)c1Nc1ccccc1	Non-toxic
COC(=O)c1c2nc3ccc(N(C)C)cc3oc-2c(O)c(=O)c1Nc1ccc(OC)cc1	Non-toxic
COC(=O)c1c2nc3ccc(N(C)C)cc3oc-2c(O)c(=O)c1Nc1ccc(C)cc1	Non-toxic
CCCCOC(=O)c1c2nc3ccc(N(C)C)cc3oc-2c(O)c(=O)c1NCc1ccc(OC)cc1	Non-toxic
COC(=O)c1c2nc3ccc(N(C)C)cc3oc-2c(O)c(=O)c1N1CCOCC1	Non-toxic
COC(=O)c1c2nc3ccc(N(C)C)cc3oc-2c(O)c(=O)c1N	Non-toxic

The compounds below were run against T1, Low-density lipoprotein receptor-related protein 6 (assay: Binding affinity to LRP6 in human SH-SY5Y cells assessed as inhibition of DKK1/LRP6 interaction-mediated tau phosphorylation at serine 396 at 10 uM incubated for 1 hr using compound pre-treated DKK1 conditioned media by Western blot analysis).
Assay type: cell-based

SMILES	inhibition
COC(=O)c1c2nc3ccc(N(C)C)cc3oc-2c(O)c(=O)c1N1CCCCC1	Active
COC(=O)c1c2nc3ccc(N(C)C)cc3oc-2c(O)c(=O)c1Nc1ccc(Cl)c(Cl)c1	Active
COC(=O)c1c2nc3ccc(N(C)C)cc3oc-2c(O)c(=O)c1N	Active
